# ChEMBL document CHEMBL1131286, “Design and synthesis of m1-selective muscarinic agonists: (R)-(-)-(Z)-1-Azabicyclo[2.2.1]heptan-3-one, O-(3-(3'-methoxyphenyl)-2-propynyl)oxime maleate (CI-1017), a functionally m1-selective muscarinic agonist” (J Med Chem, 1998)
# Activity calls are given as the source filed them. The calls are words filed in the database; no cut-off is given here.
# Key:
# [1] = biological target: T1, Muscarinic acetylcholine receptor M1 (Homo sapiens, UniProt P11229); assay: biochemical; format: cell-based, CHO
# T1 sequence (P11229 whole entry): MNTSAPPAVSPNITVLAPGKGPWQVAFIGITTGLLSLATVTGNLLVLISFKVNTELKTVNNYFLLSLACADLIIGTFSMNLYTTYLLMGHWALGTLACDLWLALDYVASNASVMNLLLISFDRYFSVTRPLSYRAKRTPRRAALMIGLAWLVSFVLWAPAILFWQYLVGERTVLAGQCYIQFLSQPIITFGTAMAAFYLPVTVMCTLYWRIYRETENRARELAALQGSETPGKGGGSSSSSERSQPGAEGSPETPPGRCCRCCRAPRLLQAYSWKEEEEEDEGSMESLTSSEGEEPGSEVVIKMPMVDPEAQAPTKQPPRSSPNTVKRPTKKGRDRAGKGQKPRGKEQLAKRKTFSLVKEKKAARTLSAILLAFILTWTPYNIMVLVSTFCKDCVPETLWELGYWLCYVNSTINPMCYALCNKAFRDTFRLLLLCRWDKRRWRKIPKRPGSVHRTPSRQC
# Description: Binding affinity of [3H]-QNB to CHO cells expressing human Muscarinic acetylcholine receptor M1
# [2] = biological target: T2, Muscarinic acetylcholine receptor M2 (Homo sapiens, UniProt P08172); assay: Binding affinity of [3H]QNB to CHO cells expressing human Muscarinic acetylcholine receptor M2; format: cell-based
# T2 sequence (P08172 whole entry): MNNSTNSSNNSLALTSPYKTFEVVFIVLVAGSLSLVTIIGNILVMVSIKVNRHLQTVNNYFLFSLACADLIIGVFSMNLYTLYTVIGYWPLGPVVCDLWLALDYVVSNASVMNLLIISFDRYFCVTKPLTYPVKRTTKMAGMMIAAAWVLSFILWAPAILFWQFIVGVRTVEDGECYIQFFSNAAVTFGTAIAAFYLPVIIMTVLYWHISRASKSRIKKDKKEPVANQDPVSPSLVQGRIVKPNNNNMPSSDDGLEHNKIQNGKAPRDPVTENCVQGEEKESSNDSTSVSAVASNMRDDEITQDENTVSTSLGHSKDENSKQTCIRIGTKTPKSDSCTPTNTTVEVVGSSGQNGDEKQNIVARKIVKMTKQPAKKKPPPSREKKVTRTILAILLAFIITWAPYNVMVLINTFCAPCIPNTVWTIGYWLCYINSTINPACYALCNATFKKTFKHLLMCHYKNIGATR
# [3] = biological target: Muscarinic acetylcholine receptor (Rattus norvegicus) (UniProt P08482+P08483+P08485+P08911+P10980); assay: Ratio of QNB binding to CMD binding was evaluated; format: protein assay
# [4] = biological target: Muscarinic acetylcholine receptor; assay: Muscarinic acetylcholine receptor binding assay was conducted using [3H]cis-methyldioxolane (CMD) to label agonist sites in membrane preparations from rat neocortex
# [5] = biological target: Muscarinic acetylcholine receptor; assay: Muscarinic acetylcholine receptor binding assay was conducted using [3H]quinuclidinyl benzilate (QNB) to label antagonist sites in membrane preparations from rat neocortex
# [6] = biological target: Muscarinic acetylcholine receptor M3 (Homo sapiens) (UniProt P20309); assay: Inositol phosphate(PI) accumulation in CHO cells expressing Muscarinic acetylcholine receptor M3 as maximal response at 100 uM relative to carbachol; format: functional, cell-based
# Sequence of Muscarinic acetylcholine receptor M3 (Homo sapiens) (P20309 whole entry, looked up): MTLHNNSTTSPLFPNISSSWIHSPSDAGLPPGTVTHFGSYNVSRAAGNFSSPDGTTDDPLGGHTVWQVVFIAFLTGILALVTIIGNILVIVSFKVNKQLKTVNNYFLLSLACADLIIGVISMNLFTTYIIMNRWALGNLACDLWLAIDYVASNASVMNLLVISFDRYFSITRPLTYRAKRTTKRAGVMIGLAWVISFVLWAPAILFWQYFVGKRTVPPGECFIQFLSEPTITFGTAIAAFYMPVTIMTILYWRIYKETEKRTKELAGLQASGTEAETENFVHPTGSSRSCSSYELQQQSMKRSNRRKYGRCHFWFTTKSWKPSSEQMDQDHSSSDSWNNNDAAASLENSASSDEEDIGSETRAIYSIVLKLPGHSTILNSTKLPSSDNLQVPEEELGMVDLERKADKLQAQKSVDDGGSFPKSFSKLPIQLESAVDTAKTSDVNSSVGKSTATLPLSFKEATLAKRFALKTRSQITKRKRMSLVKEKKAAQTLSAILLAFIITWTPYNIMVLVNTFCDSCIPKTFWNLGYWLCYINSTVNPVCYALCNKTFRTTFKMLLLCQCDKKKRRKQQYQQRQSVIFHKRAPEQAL
# [7] = biological target: T3, Muscarinic acetylcholine receptor M5 (Homo sapiens) (UniProt P08912); assay: Stimulations of inositol phosphate(PI) ccumulation in transfected CHO cells in Muscarinic acetylcholine receptor M5 values are the maximal response obtained from the compound tested at 100 uM normalized to the effect of carbachol.; format: functional, cell-based
# T3 sequence (whole entry): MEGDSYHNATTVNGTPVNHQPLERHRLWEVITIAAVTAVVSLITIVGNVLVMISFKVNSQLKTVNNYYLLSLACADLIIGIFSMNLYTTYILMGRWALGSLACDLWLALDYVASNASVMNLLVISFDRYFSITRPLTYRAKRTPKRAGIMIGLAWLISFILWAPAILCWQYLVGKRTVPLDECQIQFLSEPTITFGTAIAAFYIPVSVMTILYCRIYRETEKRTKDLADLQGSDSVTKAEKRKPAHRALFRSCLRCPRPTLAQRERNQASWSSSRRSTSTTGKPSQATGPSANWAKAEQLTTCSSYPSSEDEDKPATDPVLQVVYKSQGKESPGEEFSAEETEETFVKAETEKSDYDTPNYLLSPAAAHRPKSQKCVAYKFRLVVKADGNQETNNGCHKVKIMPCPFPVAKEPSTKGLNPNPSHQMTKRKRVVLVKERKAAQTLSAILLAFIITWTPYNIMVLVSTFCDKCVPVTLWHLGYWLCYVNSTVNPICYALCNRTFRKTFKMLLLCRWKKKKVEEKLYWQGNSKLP
# [8] = biological target: T4, Muscarinic acetylcholine receptor M1 (Homo sapiens) (UniProt P11229); assay: Stimulation of inositol phosphate(PI) accumulation in CHO cells expressing Muscarinic acetylcholine receptor M1 as maximal response at 100 uM relative to carbachol; format: functional, cell-based
# T4 sequence (whole entry): T1 sequence (P11229 whole entry)
# [9] = biological target: T3, Muscarinic acetylcholine receptor M5 (Homo sapiens); assay: Inositol phosphate(PI) accumulation in CHO cells expressing Muscarinic acetylcholine receptor M5 as maximal response at 100 uM relative to carbachol; format: functional, cell-based
# [10] = biological target: T3, Muscarinic acetylcholine receptor M5 (Homo sapiens); assay: Amplification of transfected NIH3T3 cells was measured in Muscarinic acetylcholine receptor M5 required to produce half maximal effect; format: functional, cell-based
# [11] = biological target: T3, Muscarinic acetylcholine receptor M5 (Homo sapiens); assay: Stimulations of inositol phosphate(PI) accumulation in transfected CHO cells in Muscarinic acetylcholine receptor M5 values are the maximal response obtained from the compound tested at 100 uM normalized to the effect of carbachol.; format: functional, cell-based
# [12] = biological target: T5, Muscarinic acetylcholine receptor M4 (Homo sapiens) (UniProt P08173); assay: Reversal of forskolin-stimulated accumulation of […] in transfected CHO cells, against Muscarinic acetylcholine receptor M4; format: functional, cell-based; details: concentration not given here
# T5 sequence (whole entry): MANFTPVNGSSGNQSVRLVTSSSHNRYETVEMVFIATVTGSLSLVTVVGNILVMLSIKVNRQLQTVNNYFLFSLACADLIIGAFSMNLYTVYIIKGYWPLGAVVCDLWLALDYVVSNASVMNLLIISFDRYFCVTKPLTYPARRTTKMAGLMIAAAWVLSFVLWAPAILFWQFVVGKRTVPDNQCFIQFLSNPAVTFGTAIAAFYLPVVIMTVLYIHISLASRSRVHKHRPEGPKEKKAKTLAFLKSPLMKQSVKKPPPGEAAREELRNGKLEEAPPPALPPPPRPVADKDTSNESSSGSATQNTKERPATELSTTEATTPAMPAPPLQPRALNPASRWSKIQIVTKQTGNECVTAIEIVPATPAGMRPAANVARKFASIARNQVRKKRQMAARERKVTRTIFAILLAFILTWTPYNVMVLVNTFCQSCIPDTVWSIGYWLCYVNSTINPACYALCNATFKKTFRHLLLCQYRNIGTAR
# [13] = biological target: T3, Muscarinic acetylcholine receptor M5 (Homo sapiens); details: CHO; 100 uM
# [14] = biological target: T5, Muscarinic acetylcholine receptor M4 (Homo sapiens); details: NIH3T3
# [15] = biological target: T6, Muscarinic acetylcholine receptor M2 (Homo sapiens) (UniProt P08172); details: CHO
# T6 sequence (whole entry): T2 sequence (P08172 whole entry)
# Description: Binding affinity expressed in IC50 labelled by [3H]QNB in CHO cells expressing human Muscarinic acetylcholine receptor M2
# [16] = biological target: T5, Muscarinic acetylcholine receptor M4 (Homo sapiens); assay: Maximal response obtained for each drug normalized to effect of carbachol in Muscarinic acetylcholine receptor M4; format: functional
# [17] = biological target: Muscarinic acetylcholine receptor M3 (Homo sapiens) (UniProt P20309); assay: Maximal response obtained for each drug normalized to effect of carbachol in Muscarinic acetylcholine receptor M3; format: functional
# [18] = biological target: T6, Muscarinic acetylcholine receptor M2 (Homo sapiens); assay: Amplification of transfected NIH3T3 cells was measured in Muscarinic acetylcholine receptor M2 required to produce half maximal effect; format: functional, cell-based
# [19] = biological target: Muscarinic acetylcholine receptor M3 (Homo sapiens) (UniProt P20309); assay: Stimulations of inositol phosphate(PI) accumulation in transfected CHO cells in Muscarinic acetylcholine receptor M3 values are the maximal response obtained from the compound tested at 100 uM normalized to the effect of carbachol.; format: functional, cell-based
# [20] = biological target: T3, Muscarinic acetylcholine receptor M5 (Homo sapiens); assay: Maximal response obtained for each drug normalized to effect of carbachol in Muscarinic acetylcholine receptor M5; format: functional
# [21] = biological target: T6, Muscarinic acetylcholine receptor M2 (Homo sapiens); assay: Maximal response obtained for each drug normalized to effect of carbachol in Muscarinic acetylcholine receptor M2; format: functional
# [22] = biological target: T4, Muscarinic acetylcholine receptor M1 (Homo sapiens); assay: Maximal response obtained for each drug normalized to effect of carbachol in Muscarinic acetylcholine receptor M1; format: functional
# [23] = biological target: T4, Muscarinic acetylcholine receptor M1 (Homo sapiens); details: NIH3T3
# Description: Amplification of transfected NIH3T3 cells was measured in Muscarinic acetylcholine receptor M1 required to produce half maximal effect
# [24] = biological target: T4, Muscarinic acetylcholine receptor M1 (Homo sapiens); details: CHO
# [25] = biological target: Muscarinic acetylcholine receptor M3 (Homo sapiens) (UniProt P20309); details: NIH3T3
# Description: Amplification of transfected NIH3T3 cells was measured in Muscarinic acetylcholine receptor M3 required to produce half maximal effect
# [26] = biological target: T6, Muscarinic acetylcholine receptor M2 (Homo sapiens); assay: Reversal of forskolin-stimulated accumulation of […] in transfected CHO cells, against Muscarinic acetylcholine receptor M2; Not active up to 1 mM; format: functional, cell-based
# [27] = biological target: T5, Muscarinic acetylcholine receptor M4 (Homo sapiens); assay: Amplification of transfected NIH3T3 cells was measured in Muscarinic acetylcholine receptor M4 required to produce half maximal effect; format: functional, cell-based
Structure (SMILES),IC50 [1],IC50 [2],Ratio [3],IC50 [4],IC50 [5],CCh [8],CCh [9],other results
COc1ccccc1C#CCO/N=C1\CN2CCC1C2 (centres undefined),16.6 µM,69.3 µM,80.7,–,–,–,–,–
C#C/C=C/CO/N=C1\CN2CCC1C2 (centres undefined),0.216 µM,0.519 µM,398,0.0347 µM,13.8 µM,–,–,–
COc1ccc(C#CCO/N=C2\CN3CCC2C3)cc1 (centres undefined),10.6 µM,84.4 µM,119,–,–,89%,–,CCh [6]: 2%; CCh [7]: 3%
C#CCC#CCO/N=C1\CN2CCC1C2 (centres undefined),8.83 µM,8.07 µM,402,0.022 µM,8.834 µM,–,–,–
Fc1ccc(C#CCO/N=C2\CN3CCC2C3)cc1 (centres undefined),5.46 µM,27.2 µM,204,–,–,57%,13%,CCh [6]: 10%
CO/N=C1\CN2CCC1C2 (centres undefined),26.9 µM,16.8 µM,1340,0.0181 µM,24.2 µM,–,–,–
C(#Cc1cccs1)CO/N=C1\CN2CCC1C2 (centres undefined),1.62 µM,8.9 µM,173,0.0135 µM,2.33 µM,86%,–,–
Cc1ccc(C#CCO/N=C2\CN3CCC2C3)cc1 (centres undefined),14.1 µM,38.6 µM,124,–,–,–,–,–
O=[N+]([O-])c1cccc(C#CCO/N=C2\CN3CCC2C3)c1 (centres undefined),15.1 µM,46.6 µM,227,–,–,–,–,–
Fc1cccc(C#CCO/N=C2\CN3CCC2C3)c1 (centres undefined),9.85 µM,47.9 µM,132,–,–,54%,9%,CCh [6]: 12%
Clc1ccc(C#CCO/N=C2\CN3CCC2C3)cc1 (centres undefined),4.01 µM,24.7 µM,119,–,–,48%,0%,–
C(#Cc1ccsc1)CO/N=C1\CN2CCC1C2 (centres undefined),4.84 µM,15.2 µM,163,0.0165 µM,2.69 µM,54%,13%,CCh [6]: 19%
C#C/C(C)=C/CO/N=C1\CN2CCC1C2 (centres undefined),2.59 µM,6.01 µM,480,0.00429 µM,2.06 µM,–,–,–
Clc1ccccc1C#CCO/N=C1\CN2CCC1C2 (centres undefined),1.12 µM,4.01 µM,107,–,–,32%,4%,CCh [6]: 6%
C[N+](C)(C)CCOC(N)=O,–,–,–,–,–,–,–,ED50 [10]: 1.4 µM; Stimulation [11]: 100%; inhibition [12]: 6.3%; ED50 [13]: 2.7 µM; ED50 [14]: 0.1 µM; ED50 [15]: 0.27 µM
Fc1ccccc1C#CCO/N=C1\CN2CCC1C2 (centres undefined),4.03 µM,20.8 µM,160,–,–,45%,6%,CCh [6]: 2%
C#C/C(C)=C\CO/N=C1\CN2CCC1C2 (centres undefined),1.58 µM,1.9 µM,790,0.00102 µM,0.806 µM,–,–,–
C#CCO/N=C1\CN2CCC1C2 (centres undefined),4.89 µM,6.03 µM,1240,0.0035 µM,4.35 µM,95%,42%,–
COc1cccc(C#CCO/N=C2\CN3CC[C@H]2C3)c1,–,–,–,–,–,–,–,CCh [16]: 65%; CCh [17]: 57%; ED50 [18]: 1.53 µM; Stimulation [19]: 5.2%; CCh [20]: 60%; ED50 [10]: 2.59 µM; Stimulation [11]: 1.9%; CCh [21]: 33%; CCh [22]: 51%; ED50 [23]: 1.6 µM; ED50 [24]: 3.7 µM; ED50 [25]: 4.57 µM
C/C(C#Cc1ccccc1)=C\CO/N=C1\CN2CCC1C2 (centres undefined),1.09 µM,7.93 µM,7.93,–,–,–,–,–
C#CCC#CCC#CCO/N=C1\CN2CCC1C2 (centres undefined),–,–,119,0.00804 µM,0.958 µM,–,–,–
COc1cccc(C#CCO/N=C2\CN3CC[C@@H]2C3)c1,–,–,–,–,–,–,–,CCh [16]: 72%; CCh [17]: 87%; ED50 [18]: 1.28 µM; Stimulation [19]: 10.4%; CCh [20]: 104%; ED50 [10]: 0.868 µM; Stimulation [11]: 12.3%; CCh [21]: 92%; ED50 [26]: inactive; ED50 [27]: 0.051 µM; inhibition [12]: 1.6%; CCh [22]: 41%; ED50 [23]: 0.042 µM; ED50 [24]: 1 µM; ED50 [25]: 0.865 µM
C=CCO/N=C1\CN2CCC1C2 (centres undefined),4.05 µM,10.8 µM,91.7,0.052 µM,4.77 µM,–,–,–
